This passage reports Ki results from patent US9662323B2, “Compounds having muscarinic receptor antagonist and beta2 adrenergic receptor agonist activity” (CHIESI FARMACEUTICI S.p.A., priority 2015, dated 2017).

One assay deals with T1, Human M3 receptor (Homo sapiens, UniProt P20309).
T1 construct: purchased Perkin Elmer
In words: M3 Receptor Radioligand Binding Assay. Particulars: human M3 receptor membranes, [3H]-N-methyl scopolamine; read-out: M3 binding affinity (Ki class). The protocol: Biological Characterization M3 Receptor Radioligand Binding Assay
The assay was carried out in 96-well polypropylene plates in a volume of 250 ul. […] The final assay concentration of DMSO was 0.5% (v/v). The plates were sealed and incubated for 2 h at room temperature on an orbital shaker (slow speed). Membranes were harvested onto 96-well unifilter GF/C filter plates pre-treated with 0.5% polyethyleneimine (v/v), using a filter manifold, washed four times with 200 ul of assay buffer. The plates were dried before addition of 50 μl of microscint-0, sealed then read in a Trilux Microbeta scintillation counter.

A further assay concerns the target T2, Human β2 adrenoceptor (Homo sapiens, UniProt P07550).
T2 construct: purchased Perkin Elmer
In words: β2 Adrenoceptor Radioligand Binding Assay. As to conditions: human β2 adrenoceptor membranes, 125-I Cyanopindolol; read-out: B2 binding affinity (Ki class). On the procedure:
β2 Adrenoceptor Radioligand Binding Assay
The assay was carried out in 96-well polypropylene plates in a volume of 200 ul. The assay buffer used was 25 mM HEPES, 0.5% BSA (w/v), 1 mM EDTA, 0.02% ascorbic acid (v/v), (pH 7.4). The final assay concentration of DMSO was 0.5% (v/v). The plates were sealed and incubated for 1 h at room temperature on an orbital shaker (slow speed). Membranes were harvested onto 96-well unifilter GF/C filter plates pre-treated with 0.5% polyethyleneimine (v/v), using a filter manifold, washed six times with 200 ul of wash buffer containing 10 mM HEPES and 500 mM NaCl. The plates were dried before addition of 50 μl of microscint-0, sealed then read in a Trilux Microbeta scintillation counter. IC50 values are determined from competition curves using a non-linear curve fitting program. Ki values were calculated from IC50 values by the Cheng and Prusoff equation.

T1 sequence (P20309 whole entry): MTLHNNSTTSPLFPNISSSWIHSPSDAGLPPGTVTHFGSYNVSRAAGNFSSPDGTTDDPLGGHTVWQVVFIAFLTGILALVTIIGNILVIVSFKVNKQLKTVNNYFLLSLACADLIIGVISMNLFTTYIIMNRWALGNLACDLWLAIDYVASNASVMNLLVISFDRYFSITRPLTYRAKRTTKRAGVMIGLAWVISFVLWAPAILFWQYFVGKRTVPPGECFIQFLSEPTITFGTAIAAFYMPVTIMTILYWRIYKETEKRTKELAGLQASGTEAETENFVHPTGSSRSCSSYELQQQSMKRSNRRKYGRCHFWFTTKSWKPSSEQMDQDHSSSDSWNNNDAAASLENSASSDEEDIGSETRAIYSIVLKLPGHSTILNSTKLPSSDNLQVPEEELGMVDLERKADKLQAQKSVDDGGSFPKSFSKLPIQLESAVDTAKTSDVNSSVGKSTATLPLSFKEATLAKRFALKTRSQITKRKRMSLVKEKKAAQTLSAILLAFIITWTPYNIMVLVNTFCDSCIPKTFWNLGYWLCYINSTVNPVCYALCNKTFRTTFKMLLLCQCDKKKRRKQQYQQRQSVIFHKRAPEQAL
T2 sequence (P07550 whole entry): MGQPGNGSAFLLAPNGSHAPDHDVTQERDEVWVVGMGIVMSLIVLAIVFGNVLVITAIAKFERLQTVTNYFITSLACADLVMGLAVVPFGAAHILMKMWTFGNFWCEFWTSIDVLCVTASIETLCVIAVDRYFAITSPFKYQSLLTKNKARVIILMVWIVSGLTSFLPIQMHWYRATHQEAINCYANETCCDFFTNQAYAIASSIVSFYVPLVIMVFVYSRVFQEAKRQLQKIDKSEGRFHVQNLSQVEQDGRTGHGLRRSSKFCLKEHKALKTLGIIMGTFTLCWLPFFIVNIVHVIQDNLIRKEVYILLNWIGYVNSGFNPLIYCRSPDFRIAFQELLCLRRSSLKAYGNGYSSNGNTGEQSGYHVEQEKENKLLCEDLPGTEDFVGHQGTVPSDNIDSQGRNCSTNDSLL

On to `Cc1cc(C(=O)N2CCC(C(=O)O[C@H]3CN4CCC3CC4)(c3ccccc3)CC2)ccc1OCCCCCNC[C@H](O)c1ccc(O)c2[nH]c(=O)ccc12` [Compound 10, (R)-Quinuclidin-3-yl 1-(4-((5-(((R)-2-hydroxy-2-(8-hydroxy-2-oxo-1,2-dihydroquinolin-5-yl)ethyl)amino)pentyl)oxy)-3-methylbenzoyl)-4-phenylpiperidine-4-carboxylate], for which the figures for the Ki at Human M3 receptor and at Human β2 adrenoceptor were 1 to 10 nM and less than 1 nM, respectively.
With `O=C(NCCCCNC[C@H](O)c1ccc(O)c2[nH]c(=O)ccc12)c1ccc(C(=O)N2CC(C(=O)O[C@H]3CN4CCC3CC4)(c3ccccc3)C2)cc1` [Compound 10A, (R)-Quinuclidin-3-yl 1-(4-((4-(((R)-2-hydroxy-2-(8-hydroxy-2-oxo-1,2-dihydroquinolin-5-yl)ethyl)amino)butyl)carbamoyl)benzoyl)-3-phenylazetidine-3-carboxylate], the Ki – broadly, the dissociation constant of the complex between target and ligand, obtained from inhibition or displacement – is 1 to 10 nM on Human M3 receptor and less than 1 nM at Human β2 adrenoceptor.
On to `O=C(Cc1cccc(OCCCCCNC[C@H](O)c2ccc(O)c3[nH]c(=O)ccc23)c1)N1CCC(C(=O)O[C@H]2CN3CCC2CC3)(c2ccccc2)CC1` [Compound 11, (R)-Quinuclidin-3-yl 1-(2-(3-((5-(((R)-2-hydroxy-2-(8-hydroxy-2-oxo-1,2-dihydroquinolin-5-yl)ethyl)amino)pentyl)oxy)phenyl)acetyl)-4-phenylpiperidine-4-carboxylate], for which the Ki was 1 to 10 nM at Human M3 receptor and less than 1 nM at Human β2 adrenoceptor.
Consider `O=C(NCCCCNC[C@H](O)c1ccc(O)c2[nH]c(=O)ccc12)c1ccc(C(=O)N2CC(C(=O)O[C@H]3CN4CCC3CC4)(c3ccccc3)C2)s1` [Compound 11A, (R)-Quinuclidin-3-yl 1-(5-((4-(((R)-2-hydroxy-2-(8-hydroxy-2-oxo-1,2-dihydroquinolin-5-yl)ethyl)amino)butyl)carbamoyl)thiophene-2-carbonyl)-3-phenylazetidine-3-carboxylate], for which the Ki at Human M3 receptor was 1 to 10 nM; on Human β2 adrenoceptor, less than 1 nM.
For the molecule `Cc1cc(CC(=O)N2CCC(C(=O)O[C@H]3CN4CCC3CC4)(c3ccccc3)CC2)ccc1OCCCCCNC[C@H](O)c1ccc(O)c2[nH]c(=O)ccc12` [Compound 12, (R)-Quinuclidin-3-yl 1-(2-(4-((5-(((R)-2-hydroxy-2-(8-hydroxy-2-oxo-1,2-dihydroquinolin-5-yl)ethyl)amino)pentyl)oxy)-3-methylphenyl)acetyl)-4-phenylpiperidine-4-carboxylate], the Ki was 1 to 10 nM at Human M3 receptor and greater than 10 nM at Human β2 adrenoceptor.
Turning to `CCN(CCCNC[C@H](O)c1ccc(O)c2[nH]c(=O)ccc12)C(=O)c1ccc(CCC(=O)N2CC(C(=O)O[C@H]3CN4CCC3CC4)(c3ccccc3)C2)cc1` [Compound 12A, (R)-Quinuclidin-3-yl 1-(3-(4-(ethyl(3-(((R)-2-hydroxy-2-(8-hydroxy-2-oxo-1,2-dihydroquinolin-5-yl)ethyl)amino)propyl)carbamoyl)phenyl)propanoyl)-3-phenylazetidine-3-carboxylate], the Ki at Human M3 receptor and at Human β2 adrenoceptor was 1 to 10 nM each time.
With `O=C(Cc1ccc(OCCCCCNC[C@H](O)c2ccc(O)c3[nH]c(=O)ccc23)c(F)c1)N1CCC(C(=O)O[C@H]2CN3CCC2CC3)(c2ccccc2)CC1` [Compound 13, (R)-Quinuclidin-3-yl 1-(2-(3-fluoro-4-((5-(((R)-2-hydroxy-2-(8-hydroxy-2-oxo-1,2-dihydroquinolin-5-yl)ethyl)amino)pentyl)oxy)phenyl)acetyl)-4-phenylpiperidine-4-carboxylate], the Ki on Human M3 receptor was less than 1 nM; at Human β2 adrenoceptor it was greater than 10 nM.
For `O=C(CCc1ccc(OCc2ccc(CNC[C@H](O)c3ccc(O)c4[nH]c(=O)ccc34)cc2)cc1)N1CC(C(=O)O[C@H]2CN3CCC2CC3)(c2ccccc2)C1` [Compound 13A, (R)-Quinuclidin-3-yl 1-(3-(4-((4-((((R)-2-hydroxy-2-(8-hydroxy-2-oxo-1,2-dihydroquinolin-5-yl)ethyl)amino)methyl)benzyl)oxy)phenyl)propanoyl)-3-phenylazetidine-3-carboxylate] the same measures were 1 to 10 nM and 1 to 10 nM.
In the same order, the values of `O=C(Cc1ccc(OCCCCCNC[C@H](O)c2ccc(O)c3[nH]c(=O)ccc23)c(-c2ccsc2)c1)N1CCC(C(=O)O[C@H]2CN3CCC2CC3)(c2ccccc2)CC1` [Compound 14, (R)-Quinuclidin-3-yl 1-(2-(4-((5-(((R)-2-hydroxy-2-(8-hydroxy-2-oxo-1,2-dihydroquinolin-5-yl)ethyl)amino)pentyl)oxy)-3-(thiophen-3-yl)phenyl)acetyl)-4-phenylpiperidine-4-carboxylate] are 1 to 10 nM and less than 1 nM.
Regarding `O=C(Cc1ccc(CC(=O)N2CC(C(=O)O[C@H]3CN4CCC3CC4)(c3ccccc3)C2)cc1)N(CCCNC[C@H](O)c1ccc(O)c2[nH]c(=O)ccc12)Cc1ccccc1` [Compound 14A, (R)-Quinuclidin-3-yl 1-(2-(4-(2-(benzyl(3-(((R)-2-hydroxy-2-(8-hydroxy-2-oxo-1,2-dihydroquinolin-5-yl)ethyl)amino)propyl)amino)-2-oxoethyl)phenyl)acetyl)-3-phenylazetidine-3-carboxylate], the Ki on Human M3 receptor and on Human β2 adrenoceptor was less than 1 nM in each case.
On to `O=C(Cc1ccc(OCCCCCNC[C@H](O)c2ccc(O)c3[nH]c(=O)ccc23)c(-c2ccccc2)c1)N1CCC(C(=O)O[C@H]2CN3CCC2CC3)(c2ccccc2)CC1` [Compound 15, (R)-Quinuclidin-3-yl 1-(2-(6-((5-(((R)-2-hydroxy-2-(8-hydroxy-2-oxo-1,2-dihydroquinolin-5-yl)ethyl)amino)pentyl)oxy)-[1,1′-biphenyl]-3-yl)acetyl)-4-phenylpiperidine-4-carboxylate], for which the inhibitory constant (Ki) at Human M3 receptor was greater than 10 nM; at Human β2 adrenoceptor, less than 1 nM.
Consider `O=C(Cc1ccc(OCc2ccc(CNC[C@H](O)c3ccc(O)c4[nH]c(=O)ccc34)cc2)cc1)N1CC(C(=O)O[C@H]2CN3CCC2CC3)(c2ccccc2)C1` [Compound 15A, (R)-Quinuclidin-3-yl 1-(2-(4-((4-((((R)-2-hydroxy-2-(8-hydroxy-2-oxo-1,2-dihydroquinolin-5-yl)ethyl)amino)methyl)benzyl)oxy)phenyl)acetyl)-3-phenylazetidine-3-carboxylate], for which the Ki at Human M3 receptor and at Human β2 adrenoceptor was less than 1 nM in each case.
With `O=C(CCc1ccc(OCCCCCNC[C@H](O)c2ccc(O)c3[nH]c(=O)ccc23)c(-c2ccccc2)c1)N1CCC(C(=O)O[C@H]2CN3CCC2CC3)(c2ccccc2)CC1` [Compound 16, (R)-Quinuclidin-3-yl 1-(3-(6-((5-(((R)-2-hydroxy-2-(8-hydroxy-2-oxo-1,2-dihydroquinolin-5-yl)ethyl)amino)pentyl)oxy)-[1,1′-biphenyl]-3-yl)propanoyl)-4-phenylpiperidine-4-carboxylate], the Ki on Human M3 receptor was 1 to 10 nM; at Human β2 adrenoceptor it was less than 1 nM.
`O=C(NCc1ccc(CCNC[C@H](O)c2ccc(O)c3[nH]c(=O)ccc23)cc1)c1ccc(C(=O)N2CC(C(=O)O[C@H]3CN4CCC3CC4)(c3ccccc3)C2)cc1` [Compound 16A, (R)-Quinuclidin-3-yl 1-(4-((4-(2-(((R)-2-hydroxy-2-(8-hydroxy-2-oxo-1,2-dihydroquinolin-5-yl)ethyl)amino)ethyl)benzyl)carbamoyl)benzoyl)-3-phenylazetidine-3-carboxylate]: the Ki at Human M3 receptor and at Human β2 adrenoceptor was less than 1 nM throughout.
Turning to `Cc1cc(CCC(=O)N2CCC(C(=O)O[C@H]3CN4CCC3CC4)(c3ccccc3)CC2)ccc1OCCCCCNC[C@H](O)c1ccc(O)c2[nH]c(=O)ccc12` [Compound 17, (R)-Quinuclidin-3-yl 1-(3-(4-((5-(((R)-2-hydroxy-2-(8-hydroxy-2-oxo-1,2-dihydroquinolin-5-yl)ethyl)amino)pentyl)oxy)-3-methylphenyl)propanoyl)-4-phenylpiperidine-4-carboxylate], the Ki on Human M3 receptor and on Human β2 adrenoceptor was less than 1 nM throughout.
For the molecule `O=C(NCc1ccc(C(=O)N2CC(C(=O)O[C@H]3CN4CCC3CC4)(c3ccccc3)C2)cc1)c1ccc(CNC[C@H](O)c2ccc(O)c3[nH]c(=O)ccc23)cc1` [Compound 17A, (R)-Quinuclidin-3-yl 1-(4-((4-((((R)-2-hydroxy-2-(8-hydroxy-2-oxo-1,2-dihydroquinolin-5-yl)ethyl)amino)methyl)benzamido)methyl)benzoyl)-3-phenylazetidine-3-carboxylate], the Ki on Human M3 receptor and on Human β2 adrenoceptor was less than 1 nM throughout.
Take `Cc1cc(/C=C/C(=O)N2CCC(C(=O)O[C@H]3CN4CCC3CC4)(c3ccccc3)CC2)ccc1OCCCCCNC[C@H](O)c1ccc(O)c2[nH]c(=O)ccc12` [Compound 18, (R)-Quinuclidin-3-yl 1-((E)-3-(4-((5-(((R)-2-hydroxy-2-(8-hydroxy-2-oxo-1,2-dihydroquinolin-5-yl)ethyl)amino)pentyl)oxy)-3-methylphenyl)acryloyl)-4-phenylpiperidine-4-carboxylate]: the Ki on Human M3 receptor and at Human β2 adrenoceptor was less than 1 nM each time.
